Measurements from patent publication US12122761B2, “2-azaspiro[3.4]octane derivatives as M4 agonists” (NOVARTIS AG, priority 2019, dated 2024).

Experiments:
[1] = biological target: T1, Cloned human M1 receptor (CHRM1) stably expressed in HEK293 cells (Homo sapiens, UniProt P11229); assay: CHRM1 Ca++ Flux Assay (agonist mode, FDSS 7000EX); format: cell-based; conditions: for M1 FDSS PA: Percent Activity; for EC50: geometric mean if tested more than once
T1 construct: expressed in transfected cells; host or cells: HEK293
T1 sequence (P11229 1-460): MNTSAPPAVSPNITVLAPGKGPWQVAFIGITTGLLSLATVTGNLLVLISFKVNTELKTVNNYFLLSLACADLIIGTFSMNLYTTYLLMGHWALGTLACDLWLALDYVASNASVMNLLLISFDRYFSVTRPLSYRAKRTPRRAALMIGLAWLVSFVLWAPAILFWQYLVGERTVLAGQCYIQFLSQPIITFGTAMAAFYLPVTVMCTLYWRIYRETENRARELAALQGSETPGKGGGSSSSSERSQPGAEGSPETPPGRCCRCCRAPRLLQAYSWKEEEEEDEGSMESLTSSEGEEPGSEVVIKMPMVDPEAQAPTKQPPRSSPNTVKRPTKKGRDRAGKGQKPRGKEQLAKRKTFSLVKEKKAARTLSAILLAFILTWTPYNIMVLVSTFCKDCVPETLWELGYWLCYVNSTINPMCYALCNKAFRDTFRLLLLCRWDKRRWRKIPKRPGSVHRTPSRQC
Protocol: (§1) The above examples were characterized by measuring the intracellular mobilization of Ca++ ions caused by signaling events mediated by the receptor. The Intra-cellular Calcium flux levels were captured by the highly sensitive Ca++ indicator, Calcium Assay Kit (BD Biosciences, Catalog Number 640178). The fluorescent activity from all receptors were monitored by the fluorescent imager, FDSS 7000EX (Hamamatsu) over a span of 3 minutes.
Cloned human M1 receptor (CHRM1) was stably expressed in HEK293 cells and were grown and maintained in a monolayer culture with DMEM/High Glucose (Life Technologies) supplemented with 10% Fetal Bovine Serum, 1× Pen-Strep, and 0.5 mg/mL Geneticin in a humidified atmosphere (5% CO2) at 37° C. The cultures were grown to 90% confluency in T150 flasks (Corning) and washed with 1×DPBS and lifted with 0.05% Trypsin (Life Technologies). The cells were then spun (1K rpm, 3 minutes) and frozen using Recovery Cell Culture Freezing Media (Gibco Technologies). Cells were stored in liquid nitrogen and thawed a day before the assay.
Prior to the day of the assay, stable HEK293 M1 cells were thawed and plated on 384 well black walled clear bottom TC treated plates (Greiner Cat #781091) at 25K cells/well with DMEM/High Glucose supplemented with 10% FBS (Hyclone) Pen-Strep (Life Technologies) and kept overnight in a humidified atmosphere (5% CO2) at 37° C. The following day, cells were loaded with 20 uL Ca^++ dye (BD Biosciences) using Loading Buffer (HBSS +Ca/+Mg, 20 mM HEPES) and placed back in cell incubator for a minimum of 1 hour. The dye was replaced with 45 μL Assay Buffer (HBSS −Ca/−Mg, 20 mM HEPES) and kept at room temperature prior to running on cell imager. Compounds were prepared in Assay Buffer and 5 uL was added to the cells. The FDSS 7000EX (Hamamatsu) was used to acquire Ca++ traces for 3 minutes from cells treated with 11 point dose in triplicate in order to generate dose response curves in agonist mode. All compounds were serially diluted in DMSO then prepared in Assay Buffer for Ca^++ flux studies. The dose response curves were generated from the average of triplicate wells obtained from each data point and used a non-linear regression of four parameter dose response algorithm. The Percent Activity (PA) was measured to EC100 of Carbachol.

[2] = biological target: T2, human cloned CHRM4 receptor (M4_CHO cells) (Homo sapiens, UniProt P08173); assay: CHRM4 Ca++ Flux Assay (agonist mode, FDSS 7000EX); format: cell-based; conditions: for M4 FDSS PA: Percent Activity; for EC50: geometric mean if tested more than once, read-out: M4 FDSS EC50
T2 construct: expressed in transfected cells; host or cells: CHO-K1
T2 sequence (P08173 1-479): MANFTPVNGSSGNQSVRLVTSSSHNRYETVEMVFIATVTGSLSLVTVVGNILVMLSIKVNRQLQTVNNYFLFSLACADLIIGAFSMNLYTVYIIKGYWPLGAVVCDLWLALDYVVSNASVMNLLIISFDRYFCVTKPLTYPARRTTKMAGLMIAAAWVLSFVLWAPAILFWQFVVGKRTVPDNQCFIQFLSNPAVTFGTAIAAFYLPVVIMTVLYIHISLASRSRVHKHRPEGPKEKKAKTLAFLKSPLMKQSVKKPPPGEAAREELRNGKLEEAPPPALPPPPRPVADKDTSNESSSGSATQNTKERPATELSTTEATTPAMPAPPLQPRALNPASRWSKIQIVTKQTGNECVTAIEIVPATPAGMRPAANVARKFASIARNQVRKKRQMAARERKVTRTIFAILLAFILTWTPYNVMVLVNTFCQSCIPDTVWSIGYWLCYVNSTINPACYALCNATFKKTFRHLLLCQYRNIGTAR
Protocol: as §1
CHO-K1 cells stably expressing the human cloned CHRM4 receptor (M4_CHO cells) were grown and maintained in a monolayer culture with F12/HAM (Life Technologies) supplemented with 10% Fetal Bovine Serum, 1× Pen-Strep, and 0.4 mg/mL Geneticin in a humidified atmosphere (5% CO2) at 37° C. The cultures were grown to 80-90% confluency in T150 flasks (Corning) and washed with 1×DPBS then lifted with 0.05% Trypsin (Life Technologies). The cells were harvested in growth media then spun (1K rpm, 3 minutes) and cryopreserved using Recovery Cell Culture Freezing Media (Gibco Technologies). Cells were stored in liquid nitrogen and thawed a day before the assay.
Prior to the day of the assay, stable M4_CHO cells were thawed and plated on 384 well black walled clear bottom TC treated plates (Greiner Cat #781091) at 12K cells/well using F12/HAM Media supplemented with 10% FBS (Life Technologies) and kept overnight in a humidified atmosphere (5% CO2) at 37° C. The next day, cells were loaded with […] Ca^++ dye (BD Biosciences) using Loading Buffer (HBSS +Ca/+Mg, 20 mM HEPES, 2.5 mM Probenecid) and placed back in cell incubator for a minimum of 1 hour. After incubation, the dye was replaced with 45 μL Assay Buffer (HBSS −Ca/−Mg, 20 mM HEPES, 2.5 mM Probenecid) supplemented with 20 μM ATP (Sigma Aldrich) and kept at room temperature in the dark for 60 minutes before running on a cell imager. The FDSS 7000EX (Hamamatsu) was used to capture Ca^++ traces for a span of 3 minutes from cells treated with 11 point dose of compound in triplicate in order to generate dose response curves in agonist mode. All compounds were serially diluted in DMSO then prepared in Assay Buffer for Ca^++ flux studies. The dose response curves were generated from the average of triplicate wells obtained from each data point and used a non-linear regression of four parameter dose response algorithm. The Percent Activity (PA) was measured to EC100 of Carbachol.

Row | SMILES | M1 FDSS PA [1] | EC50 [1] | M4 FDSS PA [2] | EC50 [2]
1 | Cc1nnc(COc2ccccc2C2CCN([C@@H]3CCC4(C3)CN(C(=O)C3(F)CC3)C4)CC2)o1 (single isomer, unassigned) [Example 7W, (R)-(1-fluorocyclopropyl)(6-(4-(2-((5-methyl-1,3,4-oxadiazol-2-yl)methoxy)phenyl)piperidin-1-yl)-2-azaspiro[3.4]octan-2-yl)methanone or (S)-(1-fluorocyclopropyl)(6-(4-(2-((5-methyl-1,3,4-oxadiazol-2-yl)methoxy)phenyl)piperidin-1-yl)-2-azaspiro[3.4]octan-2-yl)methanone] | 80% | 2 nM | 67% | < 0.4 nM
2 | Cc1nc(COc2ccccc2C2CCN([C@@H]3CCC4(C3)CN(C(=O)C3(F)CC3)C4)CC2)no1 (single isomer, unassigned) [Example 7X, (R)-(1-fluorocyclopropyl)(6-(4-(2-((5-methyl-1,2,4-oxadiazol-3-yl)methoxy)phenyl)piperidin-1-yl)-2-azaspiro[3.4]octan-2-yl)methanone or (S)-(1-fluorocyclopropyl)(6-(4-(2-((5-methyl-1,2,4-oxadiazol-3-yl)methoxy)phenyl)piperidin-1-yl)-2-azaspiro[3.4]octan-2-yl)methanone] | 86% | 3 nM | 66% | < 0.4 nM
3 | Cc1nnc(COc2ccccc2C2CCN([C@@H]3CCC4(C3)CN(C(=O)C3(F)CC3)C4)CC2)o1 (single isomer, unassigned) [Example 7Y, (R)-(1-fluorocyclopropyl)(6-(4-(2-((5-methyl-1,3,4-oxadiazol-2-yl)methoxy)phenyl)piperidin-1-yl)-2-azaspiro[3.4]octan-2-yl)methanone or (S)-(1-fluorocyclopropyl)(6-(4-(2-((5-methyl-1,3,4-oxadiazol-2-yl)methoxy)phenyl)piperidin-1-yl)-2-azaspiro[3.4]octan-2-yl)methanone] | 67% | 246 nM | 49% | 22 nM
4 | Cc1nc(COc2ccccc2C2CCN([C@@H]3CCC4(C3)CN(C(=O)C3(F)CC3)C4)CC2)no1 (single isomer, unassigned) [Example 7Z, (R)-(1-fluorocyclopropyl)(6-(4-(2-((5-methyl-1,2,4-oxadiazol-3-yl)methoxy)phenyl)piperidin-1-yl)-2-azaspiro[3.4]octan-2-yl)methanone or (S)-(1-fluorocyclopropyl)(6-(4-(2-((5-methyl-1,2,4-oxadiazol-3-yl)methoxy)phenyl)piperidin-1-yl)-2-azaspiro[3.4]octan-2-yl)methanone] | 77% | 211 nM | 50% | 9 nM
5 | COc1ccc(Cl)cc1C1CCN([C@H]2CCC3(C2)CN(C(=O)C2(F)CC2)C3)CC1 (single isomer, unassigned) [Example 8A, (S)-(6-(4-(5-chloro-2-methoxyphenyl)piperidin-1-yl)-2-azaspiro[3.4]octan-2-yl)(1-fluorocyclopropyl)methanone or (R)-(6-(4-(5-chloro-2-methoxyphenyl)piperidin-1-yl)-2-azaspiro[3.4]octan-2-yl)(1-fluorocyclopropyl)methanone] | 16% | 438 nM | 43% | 36 nM
6 | COc1ccc(Cl)cc1C1CCN([C@H]2CCC3(C2)CN(C(=O)C2(F)CC2)C3)CC1 (single isomer, unassigned) [Example 8B, (S)-(6-(4-(5-chloro-2-methoxyphenyl)piperidin-1-yl)-2-azaspiro[3.4]octan-2-yl)(1-fluorocyclopropyl)methanone or (R)-(6-(4-(5-chloro-2-methoxyphenyl)piperidin-1-yl)-2-azaspiro[3.4]octan-2-yl)(1-fluorocyclopropyl)methanone] | 63% | 30 nM | 64% | 1 nM
7 | O=C(N1CC2(CC[C@@H](N3CCC(c4ccccc4OC(F)(F)F)CC3)C2)C1)C1(F)CC1 (single isomer, unassigned) [Example 9A, (R)-(1-fluorocyclopropyl)(6-(4-(2-(trifluoromethoxy)phenyl)piperidin-1-yl)-2-azaspiro[3.4]octan-2-yl)methanone or (S)-(1-fluorocyclopropyl)(6-(4-(2-(trifluoromethoxy)phenyl)piperidin-1-yl)-2-azaspiro[3.4]octan-2-yl)methanone] | 43% | 2650 nM | 36% | 342 nM
8 | O=C(N1CC2(CC[C@@H](N3CCC(c4ccccc4OC(F)(F)F)CC3)C2)C1)C1(F)CC1 (single isomer, unassigned) [Example 9B, (R)-(1-fluorocyclopropyl)(6-(4-(2-(trifluoromethoxy)phenyl)piperidin-1-yl)-2-azaspiro[3.4]octan-2-yl)methanone or (S)-(1-fluorocyclopropyl)(6-(4-(2-(trifluoromethoxy)phenyl)piperidin-1-yl)-2-azaspiro[3.4]octan-2-yl)methanone] | 55% | 47 nM | 66% | 5 nM
9 | O=C(N1CC2(CC[C@@H](N3CCC(c4cc(F)ccc4OC4CCOCC4)CC3)C2)C1)C1(F)CC1 (single isomer, unassigned) [Example 9C, (R)-(6-(4-(5-fluoro-2-((tetrahydro-2H-pyran-4-yl)oxy)phenyl)piperidin-1-yl)-2-azaspiro[3.4]octan-2-yl)(1-fluorocyclopropyl)methanone or (S)-(6-(4-(5-fluoro-2-((tetrahydro-2H-pyran-4-yl)oxy)phenyl)piperidin-1-yl)-2-azaspiro[3.4]octan-2-yl)(1-fluorocyclopropyl)methanone] | 27% | 48 nM | 54% | 1 nM
